According to paper PMC5641551, “Chemical Proteomics for Target Discovery of Head-to-Tail Cyclized Mini-Proteins” (Frontiers in Chemistry, 2017):
No end group written: not given here.

Assays:
[1] = test system: 14-3-3 proteins in living Jurkat cells; experiment: photo-affinity pull down on living Jurkat cells with competitor; type: binding, human; settings: 2 h incubation with bait, [T20K]kB1 competitor at 60-fold molar excess, UV irradiation
Experimental: Biotin-LC-LC-labeled (ThermoFisher) peptides (1–5 nmoles) with or without (non-biotinylated) competitor ([…]) for 2 h at 4°C in the presence of protease inhibitors. UV-activation of photo-crosslinking moiety benzophenone was induced by irradiation at 360 nm on ice for 15 min (Stratalinker, Stratagene, CA, United States). Streptavidin-coated magnetic nanobeads 2–4 mg (1–3-fold excess of binding capacity to applied biotin-bait) facilitated the precipitation (Hyglos, Bernried, Germany). The binding could proceed overnight at 4°C. The supernatants were removed and the beads were washed several times, unless stated otherwise and used for SDS-PAGE, unless stated otherwise. For cyclotide experiments the following peptides were used: biotinylated [T20K]kB1 or [T20K,W23Bpa]kB1 as bait and [T20K]kB1, [T20K,W23Bpa]kB1, or R18 ([…]; Sigma Aldrich), a 14-3-3 family specific peptide inhibitor, as competitors. Generally, beads were washed with lysis buffer containing 1% (v/v) Triton-X100 and 0.2% SDS (w/v) and protease inhibitor cocktail for 3 h followed by wash with 0.12 mM phosphate buffered high saline (PBhS) pH 7.4, 1 M NaCl and 12 mM KCl, 1 mM EDTA for 2 h. Lastly, the beads were washed three times for 5 min with lysis buffer. […] Peptide-protein co-precipitations of 14-3-3 proteins and cyclotides were analyzed with GST-tagged 14-3-3β protein (0.25 μg; EnzoLifeSciences, New York, United States). […]

EAE disease in mice = settings: cited from earlier work
Source text: 14-3-3s are ubiquitous adaptor proteins that are involved in cell signaling, cell cycle progression and apoptosis as well as protein-protein interaction and cellular transport (Aghazadeh and Papadopoulos, [2016]). The 14-3-3 family is often described as a chimera, since knockout of single isoforms may remain without or with minor phenotypic changes due to functional rescue through the recruitment of other family members. […] Many tumor suppressors or oncogenes are regulated by 14-3- ... || Meanwhile, plant-derived cyclotides are recognized for their pharmaceutical potential. […] Additionally, cyclotides are considered as promising templates for the design of stabilized, orally active peptide epitopes (Jagadish and Camarero, [2010]; Craik et al., [2012]). The cystine-knot motif is capable of tolerance to the incorporation of several amino acid long sequences without impacting its endogenous structure and stability. Using this ...

IL-2 in T-lymphocytes = settings: reference not given; cited from earlier work
Source text: 14-3-3s are ubiquitous adaptor proteins that are involved in cell signaling, cell cycle progression and apoptosis as well as protein-protein interaction and cellular transport (Aghazadeh and Papadopoulos, [2016]). The 14-3-3 family is often described as a chimera, since knockout of single isoforms may remain without or with minor phenotypic changes due to functional rescue through the recruitment of other family members. […] Many tumor suppressors or oncogenes are regulated by 14-3- ...

## CGETCVGGTCNTPGCKCSWPVCTRNGLPV (also: bicyclic or more (positions not given here)) [[T20K]kB1, synthetic cyclotide drug candidate, Thr20 to Lys mutant of kalata B1]
[1]
  retention of labeled 14-3-3 proteins on affinity beads in presence of competitor: competitively reduced
EAE disease in mice; oral administration, ref Thell et al., 2016
  progression of typical symptoms in mouse model of multiple sclerosis: halted the progression of typical symptoms
EAE disease in mice; reported, reference not given
  symptoms of the EAE disease in mice: reduce the symptoms of the EAE disease in mice
IL-2 in T-lymphocytes
  regulatory cytokines such as IL-2 in T-lymphocytes of treated animals: significantly downregulated
